{"source": "patent US20220380769A1", "about": "(priority 2020, published 2022)", "key": {"[1]": {"tested_on": "SARS-CoV-2 (strain USA-WA1/2020)", "assay": "microbe, parasite or virus in culture", "assay_type": "cell-based"}, "[2]": {"tested_on": "SARS coronavirus Strain 39849", "conditions": "Strain 39849/Vero E6; cited from earlier work"}, "[3]": {"conditions": "human; cited from earlier work"}, "[4]": {"tested_on": "SARS coronavirus 2003VA2774", "conditions": "cited from earlier work"}, "SARS-CoV Strain v2163": {"tested_on": "SARS-CoV Strain v2163", "conditions": "in vivo, cited from earlier work"}, "[5]": {"tested_on": "SARS-associated coronavirus Strain FFM1", "conditions": "Strain FFM1/CL-14; cited from earlier work"}, "[6]": {"tested_on": "SARS-associated coronavirus Strain FFM1", "conditions": "Strain FFM1/Caco-2; cited from earlier work"}, "human CoV strain OC43": {"tested_on": "human CoV strain OC43", "conditions": "Strain OC43/BS-C-1 Kidney cells (African Green Monkey); inhibition of CPE; cited from earlier work"}, "Ebola Virus": {"tested_on": "Ebola Virus", "conditions": "in vivo, 6 mg/kg"}, "[7]": {"assay": "Clinical safety and tolerability in humans", "assay_type": "in vivo, human", "text": "Favorable safety profiles have been seen for intraperitoneal, intravenous, and intranasal routes of administration of tdsRNA."}, "[8]": {"tested_on": "avian H5N1 and H7N9 influenza hemagglutinins (HAs)", "conditions": "in vivo; cited from earlier work"}, "H5N1 influenza viruses": {"tested_on": "H5N1 influenza viruses", "conditions": "in vivo; cited from earlier work"}, "[9]": {"tested_on": "SARS virus (Urbani Strain)", "conditions": "in vivo, cited from earlier work"}, "[10]": {"conditions": "cited from earlier work"}, "[11]": {"tested_on": "normal, human-derived tracheal/bronchial epithelial (TBE) cells"}, "H5N1 influenza virus": {"tested_on": "H5N1 influenza virus", "conditions": "in vivo; cited from earlier work"}, "Mouse Hepatitis CoV MHV": {"tested_on": "Mouse Hepatitis CoV MHV", "conditions": "Mouse Hepatitis CoV MHV/BALB/c mice/IP; 10 μg/dose; cited from earlier work"}, "[12]": {"assay": "Synergy of rintatolimod with antiviral and antiproliferative drugs", "text": "These interferons include rIFN-α-2a, rIFN-β-1b, rIFN-γ."}, "[13]": {"assay": "Development of antibodies to the dsRNA in usage", "text": "(§1) Of the tdsRNA of the disclosure, the tdsRNA of formula 1 and formula 5 is preferred. This is because mis-paired regions of base pair hydrogen bonding accelerate chain hydrolysis while preserving biological activity compared to, for example, formula 3 and formula 4. Also formula 1 and formula 5 had decreased toxicity and improved safety compared to the tdsRNA which has an absence of mis-pairing."}, "TNF-α": {"tested_on": "TNF-α", "assay": "TNF-α induction", "text": "as §1"}, "TLR3": {"tested_on": "TLR3", "assay": "TLR3 agonist selectivity versus RNA helicase sensors (MDA5, RIG-I)", "conditions": "versus TLR-3 independent pathways (MDA5, RIG-I)", "text": "as §1"}}, "note": "“Also recorded” adds a separate entry of the source. Where two headings read alike, the source gives them in different places.", "data": [{"compound": "CCC(CC)COC(=O)[C@H](C)N[P@](=O)(OC[C@H]1O[C@@](C#N)(c2ccc3c(N)ncnn23)[C@H](O)[C@@H]1O)Oc1ccccc1", "note": "[Remdesivir]", "values": [{"measurement": "Log10 CCID50 virus per 0.2 mL", "setting": "[1]; 0.001 μg/mL", "value": 4.30}, {"measurement": "Log10 CCID50 virus per 0.2 mL", "setting": "[1]; 0.01 μg/mL", "value": 3.67}, {"measurement": "Log10 CCID50 virus per 0.2 mL", "setting": "[1]; 0.1 μg/mL", "value": 3.00}, {"measurement": "Log10 CCID50 virus per 0.2 mL", "setting": "[1]; 1 μg/mL", "value": 3.00}, {"measurement": "EC90", "setting": "[1]; Severe acute respiratory syndrome coronavirus 2, read-out: EC90 (concentration to reduce virus yield by 1 log10)", "value": 0.01, "unit": "µg/mL"}]}, {"compound": "NC(=O)c1ncn([C@@H]2O[C@H](CO)[C@@H](O)[C@H]2O)n1", "note": "[Ribavirin]", "values": [{"measurement": "EC50", "setting": "[2]", "value": "EC50: 50-100 μg/mL"}, {"measurement": "clinically achievable serum concentrations", "setting": "[3]", "value": 3.7, "unit": "µg/mL"}, {"measurement": "IC100", "setting": "[4]", "value": "IC100: 5,000 μg/mL"}, {"measurement": "Survival (mice surviving/total)", "setting": "SARS-CoV Strain v2163", "value": "(3/10) 65"}, {"measurement": "EC50", "setting": "[5]", "value": "EC50: 5.3 μg/mL"}, {"measurement": "EC50", "setting": "[6]", "value": "EC50: 4.7 μg/mL"}]}, {"compound": "Polyribosinic-Polyribocytidylic Acid Stabilized with Poly-L-lysine, in Carboxymethylcellulose [Poly ICLC]", "values": [{"measurement": "EC50", "setting": "human CoV strain OC43", "value": "EC50: >100 μg/mL"}]}, {"compound": "rIn.r(C12U)n [Rintatolimod]", "values": [{"measurement": "Survival", "setting": "Ebola Virus", "value": 100, "unit": "%"}, {"measurement": "drug-related deaths", "setting": "[7]; clinical trials, over 1,200 patients", "value": "no drug-related deaths"}, {"measurement": "tolerability in clinical trials", "setting": "[7]; over 1,200 patients, over 100,000 doses", "value": "well-tolerated"}, {"measurement": "serious adverse events compared to placebo", "setting": "[7]; two placebo-controlled, randomized studies", "value": "no increase"}, {"measurement": "lung scores and weight loss", "setting": "SARS-CoV Strain v2163; 10 mg/kg/day", "value": "significantly reduced"}, {"measurement": "Survival", "setting": "SARS-CoV Strain v2163", "value": 100, "unit": "%"}, {"measurement": "Survival (mice surviving/total)", "setting": "SARS-CoV Strain v2163", "value": "10/10 and (10/10)"}, {"measurement": "decline of virus in the lungs compared with untreated animals", "setting": "SARS-CoV Strain v2163", "value": "more rapid decline of virus in the lungs"}, {"measurement": "cross-reactive IgA antibody formation against avian H5N1 and H7N9 influenza hemagglutinins", "setting": "[8]", "value": "induced cross-reactive IgA antibody formation"}, {"measurement": "tolerability of combinational use with FluMist", "setting": "[8]", "value": "well tolerated"}, {"measurement": "antigen specific IgA response in the nasal mucosa", "setting": "H5N1 influenza viruses", "value": "robust antigen specific IgA response"}, {"measurement": "protection against challenge with homologous and heterologous H5N1 influenza viruses", "setting": "H5N1 influenza viruses", "value": "protected"}, {"measurement": "Drug Dose giving reduction of virus lung titers below level of detection on Day 3", "setting": "[9]; ip", "value": 10, "unit": "mg/kg"}, {"measurement": "SARS virus (Urbani Strain) titers in the lungs", "setting": "[9]", "value": "Complete inhibition to below detectable levels; also recorded: reduced virus lung titers to below detectable limits"}, {"measurement": "tolerability of dosage level", "setting": "[10]; 700 mg in an average weight human (70 kg), equivalent to 10 mg/kg", "value": "generally well-tolerated"}, {"measurement": "tolerability administered intravenously", "setting": "[10]; Chronic Fatigue Syndrome (CFS) patients, placebo-controlled trials", "value": "generally well-tolerated"}, {"measurement": "cytotoxic / cellular toxicity", "setting": "[11]; 0.5 mg/mL", "value": 0, "unit": "%"}, {"measurement": "cytotoxic / cellular toxicity", "setting": "[11]; 1.5 mg/mL", "value": 0, "unit": "%"}, {"measurement": "cytotoxic", "setting": "[11]; 4.5 mg/mL", "value": 12, "unit": "%"}, {"measurement": "cytotoxic", "setting": "[11]; 10 mg/mL", "value": 47, "unit": "%"}, {"measurement": "Vaccine specific salivary IgA and serum IgG antibodies", "setting": "H5N1 influenza virus", "value": "detected after the second immunization"}, {"measurement": "protection from challenge infection with the homologous virus", "setting": "H5N1 influenza virus", "value": "completely protected"}, {"measurement": "serum neutralizing antibody activity against homologous and heterologous H5N1 influenza virus", "setting": "H5N1 influenza virus", "value": "developed serum neutralizing anti-body activity"}, {"measurement": "Survival", "setting": "Mouse Hepatitis CoV MHV", "value": "increased survival"}, {"measurement": "synergy with α, β, and γ interferons, antiviral indication", "setting": "[12]; HIV/AIDS, rIFN-α-2a, rIFN-β-1b, rIFN-γ", "value": "synergy; also recorded: synergistic"}, {"measurement": "synergy with small molecule antiviral drugs", "setting": "[12]; Influenza (oseltamivir, zanamivir), HIV/AIDS (abacavir, zidovudine, zalcitabine, didanosine, stavudine, efavirenz, indinavir, ritonavir, nelfinavir, amprenavir, ribavirin)", "value": "synergy; also recorded: synergistic"}, {"measurement": "synergy, antiproliferative (cancer) indications", "setting": "[12]; interferons (nIFN-α, rIFN-α-2a, nIFN-β, rIFN-β-1b, nIFN-γ), IL-2, Anti-PD-L1", "value": "synergistic"}]}, {"compound": "rIn.r(CxU)n [formula 1]", "values": [{"measurement": "development of antibodies", "setting": "[13]", "value": "no development of antibodies"}, {"measurement": "TNF-α induction", "setting": "TNF-α", "value": "does not induce TNF-α"}, {"measurement": "TLR3 agonist selectivity", "setting": "TLR3", "value": "selective TLR3 agonist"}]}, {"compound": "rIn.rCn [formula 4]", "values": [{"measurement": "TNF-α induction", "setting": "TNF-α", "value": "high levels"}, {"measurement": "TLR3 agonist selectivity", "setting": "TLR3", "value": "non-selective"}]}, {"compound": "rugged dsRNA [formula 5]", "values": [{"measurement": "development of antibodies", "setting": "[13]", "value": "no development of antibodies"}, {"measurement": "TNF-α induction", "setting": "TNF-α", "value": "does not induce TNF-α"}, {"measurement": "TLR3 agonist selectivity", "setting": "TLR3", "value": "selective TLR3 agonist"}]}]}
